Measured values: article PMC10741027, “Risk Assessment of Psychotropic Drugs on Mitochondrial Function Using In Vitro Assays” (Biomedicines, 2023)
Like-named read-outs stand apart in the source and are kept apart here.

Columns and labels:
[1] = tested on: HepG2 cells; assay: Acute extracellular flux (AEF) assay in intact HepG2 cells (Seahorse XFe96); format: cell-based, human
[2] = tested on: HepG2 cells; parameters: method as in PMID 18344530; details: 200 µM, not in Glu media; cited from earlier work
[3] = tested on: CI; parameters: method as in PMID 18344530; details: isolated mitochondria; read-out: CI inhibition IC50; cited from earlier work
[4] = literature values, plasma or serum of adult humans when possible; ref 68-88 (per drug, Table 2 Cmax Reference); cited from earlier work
[5] = tested on: rPFO permeabilized HepG2 cells; assay: Mitochondrial respiratory complexes in rPFO permeabilized HepG2 cells (Seahorse XF); details: Homo sapiens, HepG2, read-out: Pyruvate Respiration AC50
[6] = tested on: HepG2 cells; assay: Glu/Gal assay: cellular ATP (CellTiter-Glo) after 24 h in glucose or galactose media; details: for AC50 / minimal effective concentration: Homo sapiens, HepG2, 24 h
[7] = tested on: complex I; parameters: method as in PMID 31104106; details: 50 µM, 30 min incubation; cited from earlier work
[8] = tested on: CI-linked respiration; details: read-out: concentration inhibiting CI-linked respiration by 50%; rat liver isolated mitochondria; cited from earlier work
[9] = tested on: rPFO permeabilized HepG2 cells
[10] = tested on: HepG2 cells
[11] = tested on: CI; parameters: method as in PMID 21120605; details: 50 µM, 18 h incubation, CHO cells; cited from earlier work
[12] = tested on: ADP-stimulated respiration; details: isolated rat liver mitochondria; cited from earlier work
[13] = tested on: liver mitochondria; parameters: method as in PMID 1347214; details: rats fed 1% (w/w) for 75 days; cited from earlier work
[14] = Homo sapiens, HepG2, minimum effective concentration crossing vehicle control threshold, read-out: MEC ATP Production
[15] = Homo sapiens, HepG2, minimum effective concentration crossing vehicle control threshold, read-out: MEC OCR
[16] = Homo sapiens, HepG2, minimum effective concentration crossing vehicle control threshold, read-out: MEC Reserve Capacity
[17] = Homo sapiens, HepG2, concentration at which 50% maximum effect is observed, read-out: AC50 ATP Production
[18] = Homo sapiens, HepG2, concentration at which 50% maximum effect is observed, read-out: AC50 ECAR
[19] = Homo sapiens, HepG2, concentration at which 50% maximum effect is observed, read-out: AC50 OCR
[20] = Homo sapiens, HepG2, concentration at which 50% maximum effect is observed, read-out: AC50 Proton Leak
[21] = Homo sapiens, HepG2, concentration at which 50% maximum effect is observed, read-out: AC50 Reserve Capacity
[22] = Homo sapiens, HepG2, minimum effective concentration crossing vehicle control threshold, read-out: MEC ECAR
[23] = Homo sapiens, HepG2, read-out: AC50 ATP Production
[24] = Homo sapiens, HepG2, read-out: AC50 ECAR
[25] = Homo sapiens, HepG2, read-out: AC50 OCR
[26] = Homo sapiens, HepG2, read-out: AC50 Proton Leak
[27] = Homo sapiens, HepG2, read-out: AC50 Reserve Capacity
[28] = Homo sapiens, HepG2, read-out: MEC ATP Production
[29] = Homo sapiens, HepG2, read-out: MEC OCR

SMILES | minimal effective concentration [1, 14] [µM] | minimal effective concentration [1, 15] [µM] | minimal effective concentration [1, 16] [µM] | AC50 [1, 17] [µM] | AC50 [1, 18] [µM] | AC50 [1, 21] [µM] | Cmax [4] [nM] | AC50 ([6]; read-out: Gal AC50) [µM] | minimal effective concentration ([6]; read-out: Gal MEC) [µM] | AC50 ([6]; read-out: Glu AC50) [µM] | minimal effective concentration [1, 22] [µM] | minimal effective concentration ([6]; read-out: Glu MEC) [µM] | also measured
O=C1CC2(CCCC2)CC(=O)N1CCCCN1CCN(c2ncccn2)CC1 [Buspirone] | 80.9 | 4.83 | 8.57 | > 100 | > 100 | 43.7 | 3 | 99 | 35.7 | > 100 | – | – | AC50 [1, 19]: > 100 µM; AC50 [1, 20]: > 100 µM; depletion (cytotoxicity) in Gal media [2]: 60%; IC50 [3]: 48 µM; AC50 [5]: > 0.1 mM
CN1CCN(C2=Nc3cc(Cl)ccc3Nc3ccccc32)CC1 [Clozapine] | 37.3 | – | – | > 100 | > 100 | – | 220 | 60.8 | 44.4 | 56.7 | 20.2 | 34.1 | decrease of complex I activity [7]: 85%
CNCCC(Oc1ccc(C(F)(F)F)cc1)c1ccccc1 (centres unmarked) [Fluoxetine] | 68.6 | 8.12 | 25.2 | – | – | 70.4 | 40 | 17.5 | 12.1 | 13.3 | 67.3 | 6.89 | IC50 [8]: 250 µM
O=C1Nc2ccc(Cl)cc2C(c2ccccc2Cl)=NC1O (centres unmarked) [Lorazepam] | – | – | – | – | – | – | 100 | > 100 | – | > 100 | – | – | AC50 [1, 23]: > 100 µM; AC50 [1, 24]: > 100 µM; AC50 [1, 25]: > 100 µM; AC50 [1, 26]: 15 µM; AC50 [1, 27]: > 100 µM; minimal effective concentration [1, 28]: 3.2 µM; minimal effective concentration [1, 29]: 63.7 µM; minimal effective concentration ([1]; Homo sapiens, HepG2, read-out: MEC Proton Leak): 3.14 µM; Most sensitive mechanism / response in permeabilized HepG2 assay (OCR) [9]: did not significantly inhibit any of the ETC complexes; Effect on cell viability / ATP in Glu and Gal media (in words) [10]: did not exhibit toxicity neither in glucose nor in galactose-grown cells
CN1c2ccccc2C(NCCCCCCC(=O)O)c2ccc(Cl)cc2S1(=O)=O (centres unmarked) [Tianeptine] | – | – | – | – | – | – | – | 57.6 | 41.8 | > 100 | – | – | AC50 [1, 23]: > 100 µM; AC50 [1, 24]: > 100 µM; AC50 [1, 25]: > 100 µM; AC50 [1, 26]: > 100 µM; AC50 [1, 27]: 21.6 µM; minimal effective concentration [1, 28]: 40.3 µM; minimal effective concentration [1, 29]: 5.5 µM; minimal effective concentration ([1]; Homo sapiens, HepG2, read-out: MEC Reserve Capacity): 0.182 µM; inhibition of CI activity [11]: ~50%
CN1CCN(CCCN2c3ccccc3Sc3ccc(C(F)(F)F)cc32)CC1 [Trifluoperazine] | – | – | < 0.002 | – | – | 0.157 | 5 | 1.13 | 0.8 | 1 | – | 0.75 | minimal effective concentration ([1]; minimum effective concentration crossing vehicle control threshold, read-out: MEC Reserve Capacity): <0.002 µM; inhibition of ADP-stimulated respiration (concentration) [12]: 66 µM; Effect on cell viability / ATP in Glu and Gal media (in words) ([6]; 24 h incubation, top concentration): complete loss of cell viability in both media
CCCC(CCC)C(=O)O [Valproic acid] | 5200 | 520 | 3090 | > 10000 | > 10000 | > 10000 | 367000 | > 10000 | – | > 10000 | 2600 | – | minimal effective concentration ([1]; Homo sapiens, HepG2, minimum effective concentration crossing vehicle control threshold, read-out: MEC Proton Leak): 1140 µM; AC50 [1, 19]: > 10000 µM; AC50 [1, 20]: 9180 µM; decrease in the respiration rate with substrates feeding CI and CII [13]: 30%; AC50 [5]: > 10 mM
